According to ChEMBL document CHEMBL5257023, “Identification of leads for antiproliferative activity on MDA-MB-435 human breast cancer cells through pharmacophore and CYP1A1-mediated metabolism” (Eur J Med Chem, 2016):

Legend:
Cytochrome P450 1A1 = target: T1, Cytochrome P450 1A1 (Homo sapiens, UniProt P04798); experiment: Inhibition of recombinant CYP1A1 (unknown origin) assessed as decrease in EROD activity using 7-ethoxyresorufin as substrate incubated for 15 mins by resorufin dye based spectrofluorimetry; assay type: ADME
T1 sequence (P04798 whole entry): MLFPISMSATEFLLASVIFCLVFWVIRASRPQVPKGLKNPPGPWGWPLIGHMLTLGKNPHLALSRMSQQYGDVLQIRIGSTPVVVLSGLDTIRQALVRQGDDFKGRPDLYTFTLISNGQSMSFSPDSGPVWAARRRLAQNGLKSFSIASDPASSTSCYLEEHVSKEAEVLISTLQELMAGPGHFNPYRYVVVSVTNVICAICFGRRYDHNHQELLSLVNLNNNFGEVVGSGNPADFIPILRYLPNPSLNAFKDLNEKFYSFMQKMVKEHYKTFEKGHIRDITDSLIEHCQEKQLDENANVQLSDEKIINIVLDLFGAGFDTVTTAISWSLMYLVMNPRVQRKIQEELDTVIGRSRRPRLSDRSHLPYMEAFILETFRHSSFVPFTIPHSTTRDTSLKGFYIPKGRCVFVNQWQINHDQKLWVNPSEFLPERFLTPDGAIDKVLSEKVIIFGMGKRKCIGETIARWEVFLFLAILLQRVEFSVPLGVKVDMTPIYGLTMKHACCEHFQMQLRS

MDA-MB-468 [1] = experiment: Anticancer activity against human MDA-MB-468 cells assessed as inhibition of cell growth incubated for 48 hrs by SRB assay; assay type: functional; conditions: for CC50: read-out: LC50 (the source's name)
MDA-MB-468 [2] = experiment: Anticancer activity against human MDA-MB-468 cells assessed as cell growth at 0.1 uM incubated for 48 hrs by SRB assay; assay type: functional; conditions: read-out: Activity
MDA-MB-435 [3] = experiment: Anticancer activity against human MDA-MB-435 cells assessed as inhibition of cell growth incubated for 48 hrs by SRB assay; assay type: functional
MDA-MB-468 [4] = experiment: Anticancer activity against human MDA-MB-468 cells assessed as cell growth at 10 uM incubated for 48 hrs by SRB assay; assay type: functional; conditions: read-out: Activity
MCF7 [5] = experiment: Anticancer activity against human MCF7 cells assessed as inhibition of cell growth incubated for 48 hrs by SRB assay; assay type: functional; conditions: for CC50: read-out: LC50 (the source's name)
NCI-H226 [6] = experiment: Anticancer activity against human NCI-H226 cells assessed as cell growth at 10 uM incubated for 48 hrs by SRB assay; assay type: functional; conditions: read-out: Activity
CYP1A1 [7] = target: T2, CYP1A1 (Homo sapiens, UniProt P04798); experiment: Inhibition of recombinant CYP1A1 (unknown origin) assessed as residual enzyme activity using 7-ethoxyresorufin as substrate at 5 uM incubated for 15 mins by resorufin dye based spectrofluorimetry (reference value: 100%); assay type: ADME; conditions: recombinant CYP1A1, probe 7-ethoxyresorufin, read-out: Activity
T2 sequence (P04798 whole entry): T1 sequence (P04798 whole entry)

CYP1A1 [8] = target: T2, CYP1A1; experiment: Inhibition of recombinant CYP1A1 (unknown origin) assessed as residual enzyme activity using 7-ethoxyresorufin as substrate at 100 uM incubated for 15 mins by resorufin dye based spectrofluorimetry (reference value: 100%); assay type: ADME; conditions: recombinant CYP1A1, probe 7-ethoxyresorufin, read-out: Activity
MDA-MB-435 [9] = experiment: Anticancer activity against human MDA-MB-435 cells assessed as cell growth at 1 uM incubated for 48 hrs by SRB assay; assay type: functional; conditions: read-out: Activity
MCF7 [10] = experiment: Anticancer activity against human MCF7 cells assessed as cell growth at 1 uM incubated for 48 hrs by SRB assay; assay type: functional; conditions: read-out: Activity
NCI-H226 [11] = experiment: Anticancer activity against human NCI-H226 cells assessed as inhibition of cell growth incubated for 48 hrs by SRB assay; assay type: functional
CYP1A1 [12] = target: T2, CYP1A1; experiment: Inhibition of recombinant CYP1A1 (unknown origin) assessed as residual enzyme activity using 7-ethoxyresorufin as substrate at 50 uM incubated for 15 mins by resorufin dye based spectrofluorimetry (reference value: 100%); assay type: ADME; conditions: recombinant CYP1A1, probe 7-ethoxyresorufin, read-out: Activity
MCF7 [13] = experiment: Anticancer activity against human MCF7 cells assessed as cell growth at 10 uM incubated for 48 hrs by SRB assay; assay type: functional; conditions: read-out: Activity
MDA-MB-435 [14] = experiment: Anticancer activity against human MDA-MB-435 cells assessed as cell growth at 0.1 uM incubated for 48 hrs by SRB assay; assay type: functional; conditions: read-out: Activity
MDA-MB-435 [15] = experiment: Anticancer activity against human MDA-MB-435 cells assessed as cell growth at 100 uM incubated for 48 hrs by SRB assay; assay type: functional; conditions: read-out: Activity
MDA-MB-435 [16] = experiment: Anticancer activity against human MDA-MB-435 cells assessed as cell growth at 10 uM incubated for 48 hrs by SRB assay; assay type: functional; conditions: read-out: Activity
NCI-H226 [17] = experiment: Anticancer activity against human NCI-H226 cells assessed as cell growth at 0.1 uM incubated for 48 hrs by SRB assay; assay type: functional; conditions: read-out: Activity
CYP1A1 [18] = target: T2, CYP1A1; experiment: Inhibition of recombinant CYP1A1 (unknown origin) assessed as residual enzyme activity using 7-ethoxyresorufin as substrate at 0.1 uM incubated for 15 mins by resorufin dye based spectrofluorimetry (reference value: 100%); assay type: ADME; conditions: recombinant CYP1A1, probe 7-ethoxyresorufin, read-out: Activity
MDA-MB-468 [19] = experiment: Anticancer activity against human MDA-MB-468 cells assessed as cell growth at 100 uM incubated for 48 hrs by SRB assay; assay type: functional; conditions: read-out: Activity
MCF7 [20] = experiment: Anticancer activity against human MCF7 cells assessed as cell growth at 0.1 uM incubated for 48 hrs by SRB assay; assay type: functional; conditions: read-out: Activity
MCF7 [21] = experiment: Anticancer activity against human MCF7 cells assessed as cell growth at 100 uM incubated for 48 hrs by SRB assay; assay type: functional; conditions: read-out: Activity
NCI-H226 [22] = experiment: Anticancer activity against human NCI-H226 cells assessed as cell growth at 100 uM incubated for 48 hrs by SRB assay; assay type: functional; conditions: read-out: Activity
NCI-H226 [23] = experiment: Anticancer activity against human NCI-H226 cells assessed as cell growth at 1 uM incubated for 48 hrs by SRB assay; assay type: functional; conditions: read-out: Activity
CYP1A1 [24] = target: T2, CYP1A1; experiment: Inhibition of recombinant CYP1A1 (unknown origin) assessed as residual enzyme activity using 7-ethoxyresorufin as substrate at 0.01 uM incubated for 15 mins by resorufin dye based spectrofluorimetry (reference value: 100%); assay type: ADME; conditions: recombinant CYP1A1, probe 7-ethoxyresorufin, read-out: Activity
MDA-MB-468 [25] = experiment: Anticancer activity against human MDA-MB-468 cells assessed as cell growth at 1 uM incubated for 48 hrs by SRB assay; assay type: functional; conditions: read-out: Activity
CYP1A1 [26] = target: T2, CYP1A1; experiment: Inhibition of recombinant CYP1A1 (unknown origin) assessed as residual enzyme activity using 7-ethoxyresorufin as substrate at 1 uM incubated for 15 mins by resorufin dye based spectrofluorimetry (reference value: 100%); assay type: ADME; conditions: recombinant CYP1A1, probe 7-ethoxyresorufin, read-out: Activity

## Cc1cc(C)n2ncc(C(=O)NCc3ccc(Cl)cc3)c2n1
Cytochrome P450 1A1
  IC50: 10 µM
MDA-MB-468 [1]
  GI50: 58.5 µM
  TGI: > 100 µM
  CC50: > 100 µM
MDA-MB-468 [2]
  growth at 0.1 µM: 90.9%
MDA-MB-435 [3]
  GI50: > 100 µM
  LC50: > 100 µM
  TGI: > 100 µM
MDA-MB-468 [4]
  growth at 10 µM: 77.6%
MCF7 [5]
  GI50: 57.7 µM
  TGI: > 100 µM
  CC50: > 100 µM
NCI-H226 [6]
  growth at 10 µM: 82.6%
CYP1A1 [7]
  activity at 0.25 h, 5 µM: 71.8%
CYP1A1 [8]
  activity at 0.25 h, 100 µM: 50.8%
MDA-MB-435 [9]
  growth at 1 µM: 99.9%
MCF7 [10]
  growth at 1 µM: 88.2%
NCI-H226 [11]
  GI50: > 100 µM
  LC50 (concentration killing 50% of cells): > 100 µM
  TGI: > 100 µM
CYP1A1 [12]
  activity at 0.25 h, 50 µM: 64.7%
MCF7 [13]
  growth at 10 µM: 80.4%
MDA-MB-435 [14]
  growth at 0.1 µM: 100%
MDA-MB-435 [15]
  growth at 100 µM: 70%
MDA-MB-435 [16]
  growth at 10 µM: 98.1%
NCI-H226 [17]
  growth at 0.1 µM: 90.9%
CYP1A1 [18]
  activity at 0.25 h, 0.1 µM: 89.8%
MDA-MB-468 [19]
  growth at 100 µM: 23.6%
MCF7 [20]
  growth at 0.1 µM: 90.1%
MCF7 [21]
  growth at 100 µM: 20.6%
NCI-H226 [22]
  growth at 100 µM: 58.3%
NCI-H226 [23]
  growth at 1 µM: 87.8%
CYP1A1 [24]
  activity at 0.25 h, 0.01 µM: 98.7%
MDA-MB-468 [25]
  growth at 1 µM: 82.6%

## Cc1sc2[nH]c(CNc3ccc(F)cc3)nc(=O)c2c1C
Cytochrome P450 1A1
  IC50: 0.7 µM
MDA-MB-468 [1]
  GI50: > 100 µM
  TGI: > 100 µM
  CC50: > 100 µM
MDA-MB-468 [2]
  growth at 0.1 µM: 99.2%
MDA-MB-435 [3]
  GI50: > 100 µM
  LC50: > 100 µM
  TGI: > 100 µM
MDA-MB-468 [4]
  growth at 10 µM: 94.4%
MCF7 [5]
  GI50: 65.8 µM
  TGI: > 100 µM
  CC50: > 100 µM
NCI-H226 [6]
  growth at 10 µM: 77.9%
CYP1A1 [7]
  activity at 0.25 h, 5 µM: 23.9%
CYP1A1 [8]
  activity at 0.25 h, 100 µM: 9.07%
MDA-MB-435 [9]
  growth at 1 µM: 97.9%
MCF7 [10]
  growth at 1 µM: 94%
CYP1A1 [26]
  activity at 0.25 h, 1 µM: 46%
NCI-H226 [11]
  GI50: > 100 µM
  LC50 (concentration killing 50% of cells): > 100 µM
  TGI: > 100 µM
CYP1A1 [12]
  activity at 0.25 h, 50 µM: 13.5%
MCF7 [13]
  growth at 10 µM: 84.1%
MDA-MB-435 [14]
  growth at 0.1 µM: 99.9%
MDA-MB-435 [15]
  growth at 100 µM: 83.5%
MDA-MB-435 [16]
  growth at 10 µM: 94.6%
NCI-H226 [17]
  growth at 0.1 µM: 91.4%
CYP1A1 [18]
  activity at 0.25 h, 0.1 µM: 85.3%
MDA-MB-468 [19]
  growth at 100 µM: 56.8%
MCF7 [20]
  growth at 0.1 µM: 96.5%
MCF7 [21]
  growth at 100 µM: 26.3%
NCI-H226 [22]
  growth at 100 µM: 51.9%
NCI-H226 [23]
  growth at 1 µM: 86.9%
CYP1A1 [24]
  activity at 0.25 h, 0.01 µM: 91.7%
MDA-MB-468 [25]
  growth at 1 µM: 95%
